IC50 data for four molecules are collected here from patent US10092570B2 (Incyte Corporation, priority 2011, dated 2018).

Each structure is given as a SMILES string.

One assay deals with PI3K isoform δ (Homo sapiens (Human), UniProt O00329). As to the kind of experiment: Example A2: PI3K enzyme assay ([γ-33P]ATP filter plate), PI3Kδ. The format is biochemical. The note with it: as determined by Assay A2. On the procedure: PI3K isoforms α, β, δ and γ are purchased from Millipore (Bedford, Mass.).
Inhibitors are first diluted serially in DMSO and added to the plate wells before the addition of other reaction components. The final concentration of DMSO in the assay is 0.5%. The PI3K assays are carried out at room temperature in 20 mM MOPS, pH 6.7, 10 mM MgCl2, 5 mM DTT and CHAPS 0.03%. The reaction mixture is prepared containing 50 μM PIP2, kinase and varying concentration of inhibitors. Reactions are initiated by the addition of ATP containing 2.2 μCi [γ-^33P]ATP to a final concentration of 1000 μM. […] Reactions are incubated for 180 minutes and terminated by the addition of 100 μL of 1 M potassium phosphate pH 8.0, 30 mM EDTA quench buffer. A 100 μL aliquot of the reaction solution are then transferred to 96-well Millipore MultiScreen IP 0.45 μm PVDF filter plate (The filter plate is prewetted with 200 μL 100% ethanol, distilled water, and 1 M potassium phosphate pH 8.0, respectively). […] After drying by aspiration and blotting, the plate is air dried in an incubator at 37° C. overnight. Packard TopCount adapter (Millipore) is then attached to the plate followed with addition of 120 μL Microscint 20 scintillation cocktail (Perkin Elmer) in each well. After the plate sealing, the radioactivity of the product is determined by scintillation counting on Topcount (Perkin-Elmer). […]

Another assay deals with PI3Kδ (p110δ/p85α) (Homo sapiens (Human), UniProt O00329). The assay is described as follows: Example A3: PI3Kδ scintillation proximity assay. Type of assay: biochemical. As to conditions: scintillation proximity assay, 20 μM ATP, 4 nM PI3Kδ; read-out: PI3Kδ SPA IC50. The essentials: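 p110δ/p85α (4 nM) phosphorylated 20 μM PIP2 with 20 μM ATP plus [γ-33P]ATP in MOPS pH 6.7, MgCl2, DTT, CHAPS, 0.5% DMSO, at RT. Stopped with EDTA/excess ATP, product captured on WGA SPA beads overnight and counted; IC50 from percent control activity versus log inhibitor.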
(In general: Scintillation proximity formats need no separation of bound from free tracer.)

The test system of assay [1] is Pfeiffer cell line (diffuse large B cell lymphoma). As to the kind of experiment: Example B2: Pfeiffer cell proliferation assay. The format is cell-based. The note with it: Homo sapiens, Pfeiffer, Pfeiffer cells, [3H]-thymidine incorporation. The essentials:
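Pfeiffer diffuse large B cell lymphoma cells obtained from ATCC were grown in RPMI with 10% FBS. Cells were seeded at 2×10^3 cells/well/per 200 μl into 96-well ultra-low binding plates with or without a concentration range of test compounds. Incorporated radiolabel was harvested by water filtration through GF/B filters and quantified by liquid scintillation counting on a TopCount.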
(Incorporation of labelled thymidine or its analogues reports DNA synthesis.)

PI3Kδ (p110δ/p85α), sequence (O00329 whole entry): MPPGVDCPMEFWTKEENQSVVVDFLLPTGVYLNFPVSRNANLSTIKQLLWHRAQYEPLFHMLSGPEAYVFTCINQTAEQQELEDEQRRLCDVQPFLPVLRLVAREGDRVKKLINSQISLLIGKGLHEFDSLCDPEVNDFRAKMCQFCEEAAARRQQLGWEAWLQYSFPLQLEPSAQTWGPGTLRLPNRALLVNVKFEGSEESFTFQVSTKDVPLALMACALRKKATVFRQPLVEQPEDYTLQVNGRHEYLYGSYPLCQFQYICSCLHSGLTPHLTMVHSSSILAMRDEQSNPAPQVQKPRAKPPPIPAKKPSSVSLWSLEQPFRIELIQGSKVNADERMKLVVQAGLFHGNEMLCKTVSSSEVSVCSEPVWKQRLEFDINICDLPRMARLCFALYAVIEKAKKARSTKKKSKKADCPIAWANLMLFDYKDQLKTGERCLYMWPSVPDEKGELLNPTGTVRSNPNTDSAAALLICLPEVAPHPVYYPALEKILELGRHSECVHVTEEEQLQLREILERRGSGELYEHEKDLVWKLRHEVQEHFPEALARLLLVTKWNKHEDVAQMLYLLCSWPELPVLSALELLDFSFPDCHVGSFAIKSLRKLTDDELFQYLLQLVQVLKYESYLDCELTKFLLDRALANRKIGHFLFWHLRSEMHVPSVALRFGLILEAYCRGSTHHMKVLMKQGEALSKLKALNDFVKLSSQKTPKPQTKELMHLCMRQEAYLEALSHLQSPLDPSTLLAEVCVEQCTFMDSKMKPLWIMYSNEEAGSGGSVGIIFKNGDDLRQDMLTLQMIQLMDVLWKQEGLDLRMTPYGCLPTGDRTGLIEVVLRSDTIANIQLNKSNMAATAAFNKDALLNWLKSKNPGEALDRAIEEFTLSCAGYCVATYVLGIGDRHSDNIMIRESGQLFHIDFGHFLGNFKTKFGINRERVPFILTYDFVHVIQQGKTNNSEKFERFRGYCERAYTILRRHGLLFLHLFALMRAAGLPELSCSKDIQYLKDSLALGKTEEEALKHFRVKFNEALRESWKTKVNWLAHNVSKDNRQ
PI3Kδ (p110δ/p85α), sequence (P27986 whole entry partner): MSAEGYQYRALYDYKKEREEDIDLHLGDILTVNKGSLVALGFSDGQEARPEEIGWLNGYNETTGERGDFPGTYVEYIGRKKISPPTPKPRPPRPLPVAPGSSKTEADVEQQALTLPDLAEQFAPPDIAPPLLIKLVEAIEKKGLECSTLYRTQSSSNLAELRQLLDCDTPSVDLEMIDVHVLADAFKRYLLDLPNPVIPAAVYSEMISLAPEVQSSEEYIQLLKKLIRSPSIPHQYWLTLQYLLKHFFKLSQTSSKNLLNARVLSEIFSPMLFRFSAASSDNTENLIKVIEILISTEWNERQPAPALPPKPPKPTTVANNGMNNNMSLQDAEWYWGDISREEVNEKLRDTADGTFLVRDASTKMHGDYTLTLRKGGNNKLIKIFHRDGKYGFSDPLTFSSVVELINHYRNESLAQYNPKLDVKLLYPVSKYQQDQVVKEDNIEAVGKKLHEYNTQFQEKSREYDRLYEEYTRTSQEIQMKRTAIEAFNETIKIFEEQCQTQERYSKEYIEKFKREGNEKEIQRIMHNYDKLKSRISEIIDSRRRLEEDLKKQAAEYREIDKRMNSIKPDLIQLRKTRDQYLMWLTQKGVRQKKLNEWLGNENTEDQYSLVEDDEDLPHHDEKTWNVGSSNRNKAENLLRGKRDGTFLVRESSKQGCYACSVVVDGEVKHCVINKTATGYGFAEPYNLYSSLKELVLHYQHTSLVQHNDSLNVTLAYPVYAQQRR
PI3K isoform δ, sequence (O00329 whole entry, canonical isoform): as the sequence (O00329 whole entry) above
PI3K isoform δ, sequence (P27986 whole entry partner, canonical isoform): as the sequence (P27986 whole entry partner) above

As usually defined, the IC50 is the concentration that inhibits the measured activity by half. In the case of `COc1c([C@@H](C)n2nc(C)c3c(N)ncnc32)cc(Cl)c(C#N)c1C1CN(C[C@H](C)O)C1` [Example 361, 4-((R)-1-(4-amino-3-methyl-1H-pyrazolo[3,4-d]pyrimidin-1-yl)ethyl)-6-chloro-2-(1-((S)-2-hydroxypropyl)azetidin-3-yl)-3-methoxybenzonitrile], the IC50 at PI3K isoform δ is over 500 nM.

As for `COc1c(C(C)n2nc(C)c3c(N)ncnc32)cc(Cl)c(C)c1C1CN(C(C)CF)C1` (stereo not shown) [Example 114, 1-(1-{5-Chloro-3-[1-(2-fluoro-1-methylethyl)azetidin-3-yl]-2-methoxy-4-methylphenyl}ethyl)-3-methyl-1H-pyrazolo[3,4-d]pyrimidin-4-amine], the IC50 (on PI3Kδ (p110δ/p85α); in assay [1]) was under 10 nM each time.

Consider `COc1c(C(C)n2nc(C)c3c(N)ncnc32)cc(Cl)c(C)c1C1CCN(C)CC1` (racemic) [Example 163, 1-{1-[5-Chloro-2-methoxy-4-methyl-3-(1-methylpiperidin-4-yl)phenyl]ethyl}-3-methyl-1H-pyrazolo[3,4-d]pyrimidin-4-amine], for which the IC50 is under 10 nM on PI3Kδ (p110δ/p85α) and 10 to 50 nM in assay [1].

Regarding `COc1c(C(C)n2nc(C)c3c(N)ncnc32)cc(Cl)c(C#N)c1C1CN(CCO)C1` (single isomer, unassigned) [Example 268, 4-[1-(4-Amino-3-methyl-1H-pyrazolo[3,4-d]pyrimidin-1-yl)ethyl]-6-chloro-2-[1-(2-hydroxyethyl)azetidin-3-yl]-3-methoxybenzonitrile], the IC50 (at PI3Kδ (p110δ/p85α); in assay [1]) was under 10 nM in each case.
